Assay results from patent US20090253745A1, “MODULATORS OF OCULAR OXIDATIVE STRESS” (SIRION THERAPEUTICS, INC., priority 2007, published 2009).

Key:
[1] = system: intact lenses dissected from wild-type mouse eyeglobes; test: Ex vivo lens toxicity test, isolated lenses incubated 2 days; conditions: 8 mM, 37 C, positive control for lens toxicity
Method: (§1) FIG. 3. Ex vivo lens toxicity test of TAPP1. The eyeglobes of mice (aged 42 days) were cultured overnight either with control solution (media containing 45% β-cyclodextrin) or TAPP1 (TAPP1 in media containing 45% β-cyclodextrin), at 37° C. overnight, and in 95% air/5% CO2. […] To determine the effects of TAPP1 on isolated lenses, intact lenses were dissected from wild-type mouse eyeglobes, and incubated in DMEM media in a 96 well tissue culture plate. Groups of 3-6 lenses were incubated in 200 μl of media alone (negative control), 4% (2-hydroxypropyl)-β-cyclodextrin (carrier control), 8 mM hydrogen peroxide (H2O2, positive control for lens toxicity), 4 mM TAPP1-O (free radical form), 4 mM TAPP1-R (reduced form), and 4 mM of the two products of TAPP1-R hydrolysis (HP-1 and HP-2), respectively. β-cyclodextrin was included as a carrier control because all of the stock solutions contained 45% (2-hydroxypropyl)-β-cyclodextrin. The samples were incubated in 5% CO2 incubator at 37 C for 2 days.
(§2) The TAPP compositions are intended for topical delivery to the anterior portion of the eye. […] Morphological or anatomical effects are determined by comparison of TAPP-treated samples to samples incubated with either the TAPP vehicle or samples which are exposed (10 min treatment) to 100% ethanol (a positive control for lens toxicity). […]

[2] = Pharmacokinetics and ocular tissue distribution of total radioactivity after single topical dose in rabbit; format: in vivo, New Zealand White rabbits
Method: (§3) FIG. 14. Pharmacokinetics and ocular tissue distribution of total radioactivity following single topical dose administration of [^14C]Compound 14 in rabbit. Four New Zealand White rabbits, age 3-4 months, weight 2.7 to 3.2 kg were used for this study. The rabbits were anesthetized and drug was administered as described above. At each specified time post dosing (0.5, 1, 2, and 4 hr), blood was collected from the ear vein of one rabbit and recovered serum volume was recorded. Rabbits were sacrificed by asphyxiation and both eyeballs were enucleated. Each eyeball was rinsed in 10 ml fresh PBS to wash off unabsorbed drug. The following tissues were harvested from each eye: anterior segment, lens, vitreous body, retina and posterior segment (without retina). Total radioactivity of each tissue and in serum was determined using a liquid scintillation analyzer (Packard Tri-Carb 2100TR). CPM was converted to DPM, and quantity of the drug (pmole) absorbed in each tissue was calculated based on specific activity (average DPM in tissues from left and right eyes). The serum level of the drug was determined as concentration (pmole/ml). [^14C]Compound 14 was rapidly taken into ocular tissues (within ˜15 min) and peak drug concentration in all tissues occurred at ˜0.5 hr.
as §3, with “Four” for “FIG. 14. Pharmacokinetics and ocular tissue distribution of total radioactivity following single topical dose administration of [^14C]Compound 14 in rabbit. Four”, “and an ophthalmic formulation of Compound 14” for “and drug”, “administered topically to the eye.” for “administered as described above.”

[3] = Pharmacokinetics and ocular tissue distribution of total radioactivity after single topical dose in mice; format: in vivo, ABCA4+/−/SOD+/− mice
Method: (§4) FIG. 13. Pharmacokinetics and ocular tissue distribution of total radioactivity following single topical dose administration of [^14C]Compound 14 in mice. Seven ABCA4+/−/SOD+/− mice were used for this study. The mice were anesthetized and drug was administered as described above. At each specified time post dosing (0 min, 15 min, 30 min, 1 hr, 2 hr, 4 hr and 6 hr), one mouse was sacrificed by cervical dislocation and both eyeballs were enucleated. Each eyeball was rinsed in 1 ml fresh PBS to wash off unabsorbed drug. The right eye was analyzed intact. From the left eye, the following tissues were harvested: lens, anterior segment, retina and posterior segment. Total radioactivity of all tissues was determined using a liquid scintillation analyzer. […] Peak drug concentration in all tissues occurred at ˜1 hr.
as §4, with “Seven” for “FIG. 13. Pharmacokinetics and ocular tissue distribution of total radioactivity following single topical dose administration of [^14C]Compound 14 in mice. Seven”, “and an ophthalmic formulation of Compound 14, prepared as described above,” for “and drug”, “administered topically to the eye.” for “administered as described above.”

[4] = system: oxidation of ABTS to ABTS^•+ radical cation by metmyoglobin; test: In vitro anti-oxidant assay: inhibition of metmyoglobin-mediated oxidation of ABTS to ABTS•+ (absorbance at 750 nm); format: biochemical
eyeglobes of mice = test: Ex vivo lens toxicity test, whole eyeglobes cultured overnight; conditions: brief treatment (10 min) with 100% ethanol, positive control
Method: as §1, §2

OO [Compound H2O2, hydrogen peroxide]
cataract in isolated lenses [1]: caused obvious cataract

CC1(C)CC(OCCCCCC(O)/C=C/C(=O)O)CC(C)(C)N1O (stereo not shown) [[^14C]Compound 14]
amount in vitreous body [2]: intermediate amount | ocular tissues with the highest recovery [2]: anterior and posterior segments | recovery in retina and lens, lower than in anterior and posterior segments [2]: approximately 10 fold | time of peak drug concentration in all tissues [2]: ~0.5 h | time until uptake into ocular tissues [2]: ≤ 15 min | ocular tissues with lower concentrations [3]: lens and retina | ocular tissues with the highest concentrations [3]: anterior and posterior segments | time of peak drug concentration in all tissues [3]: ~1 h | time until uptake into ocular tissues [3]: ≤ 15 min | dose-response of anti-oxidation activity ([4]; 0, 5, 10, 20, 50, 100, 200 and 500 μM): dose-dependent anti-oxidation activity | IC50 ([4]; 0-500 μM compound, 15 μM ABTS, 2.5 μM metmyoglobin, 80 μM hydrogen peroxide, room temperature): ~10 µM

CCO [ethanol, reference compound]
cataract formation in eyeglobes (eyeglobes of mice): caused cataract formation
